Structures can show the parent of a compound that is named as a salt.
Biological target: T1, papain (Carica papaya, UniProt P00784)
T1 construct: purchased Sigma Chem. Co
T1 sequence (P00784 134-345): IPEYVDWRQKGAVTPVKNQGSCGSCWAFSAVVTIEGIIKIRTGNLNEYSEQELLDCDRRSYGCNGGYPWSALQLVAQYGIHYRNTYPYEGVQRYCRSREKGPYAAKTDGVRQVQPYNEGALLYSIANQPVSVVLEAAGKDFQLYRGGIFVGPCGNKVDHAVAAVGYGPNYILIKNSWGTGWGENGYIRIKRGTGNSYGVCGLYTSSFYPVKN
Experiment: Papain inhibitory activity (milk casein digestion)
Format: biochemical
Conditions: papain 80 μg/ml 0.5 ml, cysteine, pH 6.8, 1% milk casein, 40° C., 10 minutes
Summary of the method: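 Papain (80 μg/ml stock) preincubated 15 min at 40 °C with inhibitor, cysteine/EDTA activator and phosphate buffer pH 6.8. Then 1% milk casein digested 10 min at 40 °C, stopped with trichloroacetic acid and filtered; filtrate absorbance at 280 nm gives percent inhibition versus no-inhibitor control.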

Row | Compound | ID50 (amount of inhibitor for 50% inhibition)
1 | CCOC(=O)C1OC1C(=O)N[C@@H](CCCCNC(=O)OC(C)(C)C)C(=O)OCc1ccccc1 (stereo partly drawn) [EP-170, N^α -(3-ethoxycarbonyloxirane-2-carbonyl)-N^ε -t-butyloxycarbonyl-L-lysine benzyl ester] | 27.50 γ
2 | O=C(OC1CCCC(Br)C1)C1OC1C(=O)OC1CCCC(Br)C1 (stereo not drawn) [EP-9, di-3'-cis-bromocyclohexyl epoxysuccinate] | 2.20 γ
3 | C=CCOC(=O)C1OC1C(=O)N[C@@H](Cc1ccc(O)cc1)C(=O)OCc1ccccc1 (stereo partly drawn) [EP-147, N-(3-allyloxycarbonyloxirane-2-carbonyl)-L-tyrosine benzyl ester] | 3.40 γ
4 | Cc1ccc(COC(=O)[C@@H]2O[C@H]2C(=O)O)cc1 (relative stereo) [EP-90, p-methylbenzyl potassium epoxysuccinate] | 0.25 γ
5 | O=C(OC1CC2C=CC1C2)C1OC1C(=O)OC1CC2C=CC1C2 (stereo not drawn) [EP-57, dinorbor-5-en-2-yl epoxysuccinate] | 0.26 γ
6 | O=C(O)[C@H]1O[C@@H]1C(=O)OCc1ccccc1Cl (relative stereo) [EP-108, o-chlorobenzyl potassium epoxysuccinate] | 0.09 γ
7 | CC(OC(=O)C1OC1C(=O)OC(C)C1CCCC1)C1CCCC1 (stereo not drawn) [EP-45, di-1-cyclopentaneethyl epoxysuccinate] | 0.23 γ
8 | O=C(OCC1CC=CCC1)C1OC1C(=O)OCC1CC=CCC1 (stereo not drawn) [EP-69, di-3-cyclohexenemethyl epoxysuccinate] | 0.23 γ
9 | O=C(O)[C@@H]1O[C@H]1C(=O)OCc1c(Cl)ccc2ccccc12 (relative stereo) [EP-84, 2'-chloro-1'-naphthylmethyl potassium epoxysuccinate] | 0.29 γ
10 | O=C(OC1CC(Cl)CC(Cl)C1)C1OC1C(=O)OC1CC(Cl)CC(Cl)C1 (stereo not drawn) [EP-23, di-3',5'-trans-dichlorocyclohexyl epoxysuccinate] | 2.45 γ
11 | O=C(CNC(=O)[C@@H]1O[C@H]1C(=O)OCCC1CCCCC1)OCc1ccccc1 (relative stereo) [EP-207, N-[3-(2'-cyclohexylethoxy)-carbonyloxirane-2-carbonyl]-glycine benzyl ester] | 6.52 γ
12 | C#CCOC(=O)[C@H]1O[C@@H]1C(=O)O (relative stereo) [EP-141, propargyl potassium epoxysuccinate] | 1.45 γ
13 | CC(C)OC(=O)[C@H]1O[C@@H]1C(=O)O (relative stereo) [EP-139, i-propyl potassium epoxysuccinate] | 0.78 γ
14 | CC(OC(=O)C1OC1C(=O)N[C@@H](CCCCN)C(=O)OCc1ccccc1)C1CCCC1 (stereo partly drawn) [EP-206, N-[3-(1'-cyclopentylethoxy)-carbonyloxirane-2-carbonyl]-L-lysine benzyl ester] | 0.12 γ
15 | CCOC(=O)[C@H](CC(C)C)NC(=O)C1OC1C(=O)OC (stereo partly drawn) [EP-166, N-(3-methoxycarbonyloxirane-2-carbonyl)-L-leucine ethyl ester] | 0.67 γ
16 | O=C(OCCC12CC3CC(CC(C3)C1)C2)[C@@H]1O[C@H]1C(=O)OCCC12CC3CC(CC(C3)C1)C2 (relative stereo) [EP-49, di-2-(1-adamantane)ethyl epoxysuccinate] | 0.85 γ
17 | O=C(OCc1ccc(I)cc1Br)[C@H]1O[C@@H]1C(=O)OCc1ccc(I)cc1Br (relative stereo) [EP-119, di-2'-bromo-4'-iodobenzyl epoxysuccinate] | 3.00 γ
18 | CCOC(=O)C1OC1C(=O)N[C@@H](Cc1c[nH]c2ccccc12)C(=O)OCC (stereo partly drawn) [EP-151, N-(3-ethoxycarbonyloxirane-2-carbonyl)-L-tryptophan ethyl ester] | 7.20 γ
19 | Cc1cccc2c(COC(=O)[C@@H]3O[C@H]3C(=O)OCc3ccc(C)c4c(C)cccc34)ccc(C)c12 (relative stereo) [EP-87, di-4',5'-dimethyl-1'-naphthylmethyl epoxysuccinate] | 1.58 γ
20 | O=C(CC[C@H](NC(=O)C1OC1C(=O)OC1CCCCCCC1)C(=O)OCc1ccccc1)OCc1ccccc1 (stereo partly drawn) [EP-209, N-(3-cyclooctyloxycarbonyloxirane-2-carbonyl)-L-glutamic acid dibenzyl ester] | 2.45 γ
21 | O=C(OC1CC2CCC1C2)C1OC1C(=O)OC1CC2CCC1C2 (stereo not drawn) [EP-55, dinorbornyl epoxysuccinate] | 0.28 γ

Row | Compound | ID50 (amount of inhibitor for 50% inhibition)
22 | O=C(O)[C@H]1O[C@@H]1C(=O)OCc1cccc(F)c1 (relative stereo) [EP-122, m-fluorobenzyl potassium epoxysuccinate] | 0.10 γ
23 | C=CCOC(=O)C1OC1C(=O)N[C@@H](CCCCNC(=O)OCc1ccccc1)C(=O)OCc1ccccc1 (stereo partly drawn) [EP-164, N^α -(3-allyloxycarbonyloxirane-2-carbonyl)-N^ε -carbobenzoxy-L-lysine benzyl ester] | 20.49 γ
24 | C[C@@H]1CCCC[C@H]1OC(=O)[C@@H]1O[C@H]1C(=O)O[C@@H]1CCCC[C@H]1C (relative stereo) [EP-5, di-2'-trans-methylcyclohexyl epoxysuccinate] | 2.36 γ
25 | CCOC(=O)C1OC1C(=O)N[C@@H](CC(=O)OCc1ccccc1)C(=O)OCc1ccccc1 (stereo partly drawn) [EP-193, N-(3-ethoxycarbonyloxirane-2-carbonyl)-L-aspartic acid dibenzyl ester] | 20.50 γ
26 | O=C(OCc1ccc2c(c1)OCO2)[C@@H]1O[C@H]1C(=O)OCc1ccc2c(c1)OCO2 (relative stereo) [EP-103, di-methylene-3',4'-dioxybenzyl epoxysuccinate] | 1.06 γ
27 | O=C(O[C@H]1CC[C@H](Cl)CC1)[C@@H]1O[C@H]1C(=O)O[C@H]1CC[C@H](Cl)CC1 (relative stereo) [EP-19, di-4'-trans-chlorocyclohexyl epoxysuccinate] | 2.01 γ
28 | CC(C)OC(=O)C1OC1C(=O)N[C@@H](CCCCNC(=O)OCc1ccccc1)C(=O)OCc1ccccc1 (stereo partly drawn) [EP-180, N^α -(3-iso-propyloxycarbonyloxirane-2-carbonyl)-N^ε -carbobenzoxy-L-lysine benzyl ester] | 9.76 γ
29 | O=C(O)[C@@H]1O[C@H]1C(=O)OC1CC2CCC1CC2 (relative stereo) [EP-52, bicyclo [2,2,2] octyl potassium epoxysuccinate] | 0.07 γ
30 | O=C(O)[C@@H]1O[C@H]1C(=O)OCC1CCC=CCCC1 (relative stereo) [EP-74, 4-cyclooctenemethyl potassium epoxysuccinate] | 0.07 γ
31 | CC(C)[C@H](NC(=O)C1OC1C(=O)OCc1ccc(Br)cc1)C(=O)OCc1ccccc1 (stereo partly drawn) [EP-162, N-(3-p-bromobenzyloxycarbonyloxirane-2-carbonyl)-L-valine benzyl ester] | 0.80 γ
32 | CCOC(=O)C1OC1C(=O)N[C@H](C(=O)OCc1ccccc1)C(C)C (stereo partly drawn) [EP-158, N-(3-ethoxycarbonyloxirane-2-carbonyl)-L-valine benzyl ester] | 3.47 γ
33 | O=C(OCCCC1CCCCC1)[C@@H]1O[C@H]1C(=O)OCCCC1CCCCC1 (relative stereo) [EP-65, di-3-cyclohexanepropyl epoxysuccinate] | 69.44 γ
34 | O=C(NCCCC[C@H](NC(=O)C1OC1C(=O)O)C(=O)O)OCc1ccccc1 (stereo partly drawn) [EP-176, N-(3-carboxyoxirane-2-carbonyl)-N-carbobenzoxy-L-lysine dipotassium salt] | 1.06 γ
35 | O=C(O)[C@H]1O[C@@H]1C(=O)Oc1ccccc1 (relative stereo) [EP-136, phenyl hydrogen epoxysuccinate] | 2.72 γ
36 | CCOC(=O)C1OC1C(=O)N[C@@H](CO)C(=O)OCC (stereo partly drawn) [EP-186, N^α -(3-ethoxycarbonyloxirane-2-carbonyl)-L-serine ethyl ester] | 23.15 γ
37 | Cc1ccc(COC(=O)C2OC2C(=O)N[C@@H](CCCCNC(=O)OCc2ccccc2)C(=O)OCc2ccccc2)cc1 (stereo partly drawn) [EP-181, N^α -(3-p-methylbenzyloxycarbonyloxirane-2-carbonyl)-N^ε -carbobenzoxy-L-lysine benzyl ester] | 6.59 γ
38 | O=C(OCc1ccc(Cl)cc1)[C@@H]1O[C@H]1C(=O)OCc1ccc(Cl)cc1 (relative stereo) [EP-115, di-p-chlorobenzyl epoxysuccinate] | 1.20 γ
39 | O=C(O)[C@@H]1O[C@H]1C(=O)OCCCCC1CCCCC1 (relative stereo) [EP-68, 4-cyclohexanebutyl potassium epoxysuccinate] | 0.10 γ
40 | O=C(O)[C@@H]1O[C@H]1C(=O)OCc1ccco1 (relative stereo) [EP-78, 2-furanmethyl potassium epoxysuccinate] | 0.54 γ
41 | CCOC(=O)[C@H](Cc1ccccc1)NC(=O)C1OC1C(=O)OC1CCCCC1C (stereo partly drawn) [EP-212, N-[3-(2'-cis-methylcyclohexyloxy)carbonyloxirane-2-carbonyl]-L-phenylalanine ethyl ester] | 1.21 γ
42 | O=C(OCc1ccco1)[C@@H]1O[C@H]1C(=O)OCc1ccco1 (relative stereo) [EP-77, di-2-furanmethyl epoxysuccinate] | 0.77 γ

Source: patent US4393228A, “Epoxysuccinic acid derivatives” (Taisho Pharmaceutical Co., Ltd., priority 1977, dated 1983)
